# Key:
# [1] = system: Streptococcus pyogenes; assay: Comparative in vitro zone diameter test on Müler-Hinton-Agar; type: cell-based; details: amount used: novel compound 0.05 mL, Cephalosporin 0.1 mL, Ampicillin 0.2 mL
# Text: (§1) Here are the findings of the comparative examination of selected pathogens against the novel compound and the antibiotics Cephalosporin and Ampicillin:
# (§2) Evaluation of the results by zone diameter: • 0 mm to 4 mm: resistant: R • 5 mm to 9 mm: moderately sensitive: MS • 10 mm to 15 mm: sensitive: S • 16 mm to 20 mm: very sensitive: VS • 21 mm and more: extremely sensitive: ES
# [2] = system: Escherichia coli O157:H7; assay: as above; type: cell-based; details: amount used: novel compound 0.05 mL, Cephalosporin 0.1 mL, Ampicillin 0.2 mL
# Text: as §1, §2
# [3] = system: Streptococcus uberis; assay: as above; type: cell-based; details: amount used: novel compound 0.05 mL, Cephalosporin 0.1 mL, Ampicillin 0.2 mL
# Text: as §1, §2
# [4] = system: Streptococcus pneumoniae; assay: as above; type: cell-based; details: amount used: novel compound 0.05 mL, Cephalosporin 0.1 mL, Ampicillin 0.2 mL
# Text: as §1, §2
# [5] = system: Salmonella typhimurium DT104; assay: as above; type: cell-based; details: amount used: novel compound 0.05 mL, Cephalosporin 0.1 mL, Ampicillin 0.2 mL
# Text: as §1, §2
# [6] = system: Listeria monocytogenes; assay: as above; type: cell-based; details: amount used: novel compound 0.05 mL, Cephalosporin 0.1 mL, Ampicillin 0.2 mL
# Text: as §1, §2
# [7] = system: Staphylococcus aureus; assay: as above; type: cell-based; details: amount used: novel compound 0.05 mL, Cephalosporin 0.1 mL, Ampicillin 0.2 mL
# Text: as §1, §2
# [8] = system: mice; assay: Acute toxicity LD50, intraperitoneal (i.p.) injection, mice; type: in vivo
# Text: (§3) Both mice and rats were specially selected for the testing of the toxicity of the compounds, medicine, and chemicals. […] Groups of one hundred (100) lab mice and rats of both genders were placed into glass compartments. They were regularly consuming food manufactured for these lab animals. Water consumption was always available.
# (§4) Intraperitoneal testing of the compound LD50 i.e. by pharmaceutical lab needle and syringe, designed for the easy application to the lab animals intraperitoneally.
# Breathing and cardiac functions were regular, function of thorax was regular and without visual changes. Discomfort symptoms noticed after the applications, disappeared after 3-5 min, diverse from mouse to mouse.
# [9] = system: rats; assay: Acute toxicity LD50, peroral application (p.o.), rats; type: in vivo
# Text: as §3
# (§5) The peroral application (p.o.) acute toxicity LD50 testing was done using the standard procedure: application p.o. with the special lab pipette easy to administer liquid product: orally to the lab animals.
# Breathing and cardiac functions were regular, function of thorax was regular and without visual changes. Discomfort symptoms noticed after the applications, disappeared after 1-3 min, diverse from rat to rat.
# [10] = system: mice; assay: Acute toxicity LD50, peroral application (p.o.), mice; type: in vivo
# Text: as §3, §5
# Breathing and cardiac functions were regular, function of thorax was regular and without visual changes. Discomfort symptoms were noticed after the applications, disappeared after 1-3 min, diverse from mouse to mouse.
# [11] = system: rats; assay: Acute toxicity LD50, intraperitoneal (i.p.) injection, rats; type: in vivo
# Text: as §3, §4
# Breathing and cardiac functions were regular, function of thorax was regular and without visual changes. Discomfort symptoms noticed after the applications, disappeared after 5-6 min, diverse from rat to rat.
Compound,R (evaluation by zone diameter) [1],zone diameter [1],R (evaluation by zone diameter) [2],zone diameter [2],R (evaluation by zone diameter) [3],zone diameter [3],R (evaluation by zone diameter) [4],zone diameter [4],R (evaluation by zone diameter) [5],zone diameter [5],R (evaluation by zone diameter) [6],zone diameter [6],R (evaluation by zone diameter) [7],zone diameter [7],other results
"CC1(C)S[C@@H]2[C@H](NC(=O)[C@H](N)c3ccccc3)C(=O)N2[C@H]1C(=O)O [Ampicilin, Ampicillin]",R (0 mm to 4 mm: resistant: R),3 mm,MS (5 mm to 9 mm: moderately sensitive: MS),7 mm,R (0 mm to 4 mm: resistant: R),0 mm,R (0 mm to 4 mm: resistant: R),0 mm,MS (5 mm to 9 mm: moderately sensitive: MS),6 mm,MS (5 mm to 9 mm: moderately sensitive: MS),7 mm,R (0 mm to 4 mm: resistant: R),0 mm,–
"CCN(CC)CC(=O)Nc1c(C)cccc1C.Cc1cc([N+](=O)[O-])c(C(C)C)c([N+](=O)[O-])c1O [Novel Compound, 2,4-dinitro-5-isopropyl-2-methylphenoxy-N-(2,6-dimethylphenylium)-N2,N2-diethylglycinamide]",ES (21 mm and more: extremely sensitive: ES),29 mm,ES (21 mm and more: extremely sensitive: ES),24 mm,ES (21 mm and more: extremely sensitive: ES),32 mm,ES (21 mm and more: extremely sensitive: ES),31 mm,ES (21 mm and more: extremely sensitive: ES),25 mm,ES (21 mm and more: extremely sensitive: ES),33 mm,ES (21 mm and more: extremely sensitive: ES),27 mm,"Intraperitoneal LD50 ([8]; i.p.): over 1,550 μL/kg; animals that changed their behavior and demonstrated discomfort, running, anxiety ([8]; i.p., 1,550 μL/kg): 21 mice out of one hundred (100); time after which discomfort symptoms disappeared ([8]; i.p., 1,550 μL/kg): 3 to 5 min; toxicity conclusion ([8]; i.p., applied doses): low toxic; lethality during the test ([8]; i.p., doses up to 1,550 μL/kg): No mouse has ended lethally; toxicity conclusion ([9]; orally (p.o.), applied doses): low toxic; oral LD50 ([9]; p.o.): over 2,250 μL/kg; animals that changed their behavior and demonstrated light discomfort, running, anxiety ([9]; p.o., 2,250 μL/kg): 37 rats out of one hundred (100); time after which discomfort symptoms disappeared ([9]; p.o., 2,250 μL/kg): 1 to 3 min; lethality during the test ([9]; p.o., doses up to 2,250 μL/kg): No rat has ended lethally; toxicity conclusion ([10]; orally (p.o.), applied doses): low toxic; oral LD50 ([10]; p.o.): over 2,000 μL/kg; animals that changed their behavior and demonstrated light discomfort, running, anxiety ([10]; p.o., 2,000 μL/kg): 23 mice out of one hundred (100); time after which discomfort symptoms disappeared ([10]; p.o., 2,000 μL/kg): 1 to 3 min; lethality during the test ([10]; p.o., doses up to 2,000 μL/kg): No mouse has ended lethally; Intraperitoneal LD50 ([11]; i.p.): over 1,750 ML/kg; animals that changed their behavior and demonstrated discomfort, running, anxiety ([11]; i.p., 1,750 μL/kg): 29 rats out of one hundred (100); time after which discomfort symptoms disappeared ([11]; i.p., 1,750 μL/kg): 5 to 6 min; toxicity conclusion ([11]; i.p., applied doses): low toxic; lethality during the test ([11]; i.p., doses up to 1,750 μL/kg): No rat has passed lethally"

# — patent US12037302B1, “Compound for treatment of bacterial infections of different etiology in humans” (priority 2021, dated 2024)
